From ChEMBL document CHEMBL1138895, “Synthesis and antibacterial activity of nocathiacin I analogues” (Bioorg Med Chem Lett, 2006)
Values after ≈ are worked out from the molar mass of the structure shown.

Tests used:
[1] = test system: Staphylococcus aureus; experiment: Antibacterial activity against methicillin-sensitive Staphylococcus aureus A15090; type: functional
[2] = species on record: Mus musculus; experiment: Activity against Staphylococcus aureus A15090 infected ICR mouse after 8 days; type: functional; conditions: 192 h, read-out: PD50
[3] = test system: Streptococcus pneumoniae; experiment: Antibacterial activity against penicillin resistant Streptococcus pneumoniae A28272; type: functional
[4] = test system: Enterococcus faecalis; experiment: Antibacterial activity against […] A20688; type: functional
[5] = Solubility at pH 3.1; type: physicochemical; conditions: buffer
[6] = Solubility at pH 7.4; type: physicochemical; conditions: buffer
[7] = Solubility at pH 3.0; type: physicochemical; conditions: buffer

Compound | MIC [1] | ED50 [2] | MIC [3] | MIC [4] | solubility [5] | solubility [6] | solubility [7]
CO/C(C)=C1/NC(=O)[C@H]([C@@H](C)O)NC(=O)c2csc(n2)-c2cc(O)c(-c3nc(C(=O)N[C@@H](C)C(=O)NCCO)cs3)nc2-c2csc(n2)[C@@H]2COC(=O)c3c4c5c(cccc5n3O)COC(=O)[C@@H](O[C@H]3C[C@](C)(O)[C@H](N(C)C)[C@H](C)O3)[C@@H](OC4)[C@H](NC(=O)c3csc1n3)c1nc(cs1)C(=O)N2 | 0.03 µg/mL (≈ 0.0202 µM) | 1.44 mg/kg | 0.001 µg/mL (≈ 0.000674 µM) | 0.5 µg/mL (≈ 0.337 µM) | 1300 µg/mL (≈ 876 µM) |  | 
CO/C(C)=C1/NC(=O)[C@H]([C@@H](C)O)NC(=O)c2csc(n2)-c2cc(O)c(-c3nc(C(=O)N[C@@H](C)C(N)=O)cs3)nc2-c2csc(n2)[C@@H]2COC(=O)c3c4c5c(cccc5n3O)COC(=O)[C@@H](O[C@H]3C[C@](C)(O)[C@H](N(C)C)[C@H](C)O3)[C@@H](OC4)[C@H](NC(=O)c3csc1n3)c1nc(cs1)C(=O)N2 | 0.25 µg/mL (≈ 0.174 µM) | 1.65 mg/kg | 0.06 µg/mL (≈ 0.0417 µM) | 2 µg/mL (≈ 1.39 µM) | 700 µg/mL (≈ 486 µM) |  | 
CO/C(C)=C1/NC(=O)[C@H]([C@@H](C)O)NC(=O)c2csc(n2)-c2cc(O)c(-c3nc(C(=O)N[C@@H](C)C(=O)NCc4ccc(CP(=O)(O)O)cc4)cs3)nc2-c2csc(n2)[C@@H]2COC(=O)c3c4c5c(cccc5n3O)COC(=O)[C@@H](O[C@H]3C[C@](C)(O)[C@H](N(C)C)[C@H](C)O3)[C@@H](OC4)[C@H](NC(=O)c3csc1n3)c1nc(cs1)C(=O)N2 | 1 µg/mL (≈ 0.616 µM) | > 10 mg/kg | 0.25 µg/mL (≈ 0.154 µM) | 2 µg/mL (≈ 1.23 µM) |  | > 2600 µg/mL | 
CO/C(C)=C1/NC(=O)[C@H]([C@@H](C)O)NC(=O)c2csc(n2)-c2cc(O)c(-c3nc(C(=O)N[C@@H](C)C(=O)N4CCC[C@H]4CO)cs3)nc2-c2csc(n2)[C@@H]2COC(=O)c3c4c5c(cccc5n3O)COC(=O)[C@@H](O[C@H]3C[C@](C)(O)[C@H](N(C)C)[C@H](C)O3)[C@@H](OC4)[C@H](NC(=O)c3csc1n3)c1nc(cs1)C(=O)N2 | 0.03 µg/mL (≈ 0.0197 µM) | 2.18 mg/kg | 0.015 µg/mL (≈ 0.00984 µM) | 0.25 µg/mL (≈ 0.164 µM) | 2200 µg/mL (≈ 1440 µM) |  | 
CO/C(C)=C1/NC(=O)[C@H]([C@@H](C)O)NC(=O)c2csc(n2)-c2cc(O)c(-c3nc(C(=O)N[C@@H](C)C(=O)NCCOCCO)cs3)nc2-c2csc(n2)[C@@H]2COC(=O)c3c4c5c(cccc5n3O)COC(=O)[C@@H](O[C@H]3C[C@](C)(O)[C@H](N(C)C)[C@H](C)O3)[C@@H](OC4)[C@H](NC(=O)c3csc1n3)c1nc(cs1)C(=O)N2 | 0.03 µg/mL (≈ 0.0196 µM) | 1 mg/kg | 0.015 µg/mL (≈ 0.00982 µM) | 0.25 µg/mL (≈ 0.164 µM) | > 2900 µg/mL |  | 
CO/C(C)=C1/NC(=O)[C@H]([C@@H](C)O)NC(=O)c2csc(n2)-c2cc(O)c(-c3nc(C(=O)N[C@@H](C)C(=O)NCCc4ccncc4)cs3)nc2-c2csc(n2)[C@@H]2COC(=O)c3c4c5c(cccc5n3O)COC(=O)[C@@H](O[C@H]3C[C@](C)(O)[C@H](N(C)C)[C@H](C)O3)[C@@H](OC4)[C@H](NC(=O)c3csc1n3)c1nc(cs1)C(=O)N2 | 0.125 µg/mL (≈ 0.0809 µM) | 3.3 mg/kg | 0.015 µg/mL (≈ 0.00971 µM) | 0.06 µg/mL (≈ 0.0388 µM) |  |  | > 3400 µg/mL
CO/C(C)=C1/NC(=O)[C@H]([C@@H](C)O)NC(=O)c2csc(n2)-c2cc(O)c(-c3nc(C(=O)N[C@@H](C)C(=O)NCCOP(=O)([O-])[O-])cs3)nc2-c2csc(n2)[C@@H]2COC(=O)c3c4c5c(cccc5n3O)COC(=O)[C@@H](O[C@H]3C[C@](C)(O)[C@H](N(C)C)[C@H](C)O3)[C@@H](OC4)[C@H](NC(=O)c3csc1n3)c1nc(cs1)C(=O)N2.[Na+].[Na+] | 8 µg/mL | 1.65 mg/kg | 0.5 µg/mL | 16 µg/mL |  | > 4800 µg/mL | 
CO/C(C)=C1/NC(=O)[C@H]([C@@H](C)O)NC(=O)c2csc(n2)-c2cc(O)c(-c3nc(C(=O)N[C@@H](C)C(=O)NC[C@H](O)CO)cs3)nc2-c2csc(n2)[C@@H]2COC(=O)c3c4c5c(cccc5n3O)COC(=O)[C@@H](O[C@H]3C[C@](C)(O)[C@H](N(C)C)[C@H](C)O3)[C@@H](OC4)[C@H](NC(=O)c3csc1n3)c1nc(cs1)C(=O)N2 | 0.25 µg/mL (≈ 0.165 µM) | 5 mg/kg | 0.03 µg/mL (≈ 0.0198 µM) | 0.25 µg/mL (≈ 0.165 µM) | > 2200 µg/mL |  | 
CO/C(C)=C1/NC(=O)[C@H]([C@@H](C)O)NC(=O)c2csc(n2)-c2cc(O)c(-c3nc(C(=O)N[C@@H](C)C(=O)N[C@@H]4[C@@H](O)[C@H](O)[C@@H](CO)O[C@H]4O)cs3)nc2-c2csc(n2)[C@@H]2COC(=O)c3c4c5c(cccc5n3O)COC(=O)[C@@H](O[C@H]3C[C@](C)(O)[C@H](N(C)C)[C@H](C)O3)[C@@H](OC4)[C@H](NC(=O)c3csc1n3)c1nc(cs1)C(=O)N2 | 1 µg/mL (≈ 0.624 µM) | > 10 mg/kg | 0.06 µg/mL (≈ 0.0375 µM) | 0.5 µg/mL (≈ 0.312 µM) | > 2200 µg/mL |  | 
